Measurements published in US11026940B2, “Compositions for the mobilization, homing, expansion and differentiation of stem cells and methods of using the same” (Ampio Pharmaceuticals, Inc., priority 2013, dated 2021).
Where “and” joins values, the source holds several entries; their conditions need not be identical. Identical values can stand only once.

Assays:
Collagen 2A1 = experiment: Stem cell chondrogenesis, real time PCR gene expression: Collagen 2A1; format: cell-based, human; conditions: for Cp Coll / Mean regulation: Collagen 2A1; for Cp Coll / Mean regulation / Mean ΔCp: Day 22; for Mean regulation: vs saline; for Mean ΔCp: Collagen 2A1 vs GAPDH; for regulation, Collagen 2A1 / Mean regulation, Collagen 2A1: fold regulation vs saline; for regulation, Collagen 2A1 / ΔCp, Collagen 2A1 / 2^-ΔΔCp vs saline, Collagen 2A1 / ΔΔCp vs saline, Collagen 2A1: single replicate well; for Mean regulation, Collagen 2A1 / Mean ΔCp, Collagen 2A1: triplicate wells; for ΔCp, Collagen 2A1: human bone marrow MSC, chondrogenic medium + TGF beta 3; for ΔCp, Collagen 2A1 / 2^-ΔΔCp vs saline, Collagen 2A1 / ΔΔCp vs saline, Collagen 2A1 / Mean ΔCp, Collagen 2A1: vs Actin
Protocol: (§1) • Stem Cells: Bone marrow derived human mesenchymal stem cells: Passage 5 Bone marrow derived human mesenchymal stem cells (HUXMA-01001, Cyagen Biosciences, Sunnyvale Calif.) • Mesenchymal Stem Cell Chondrogenic Differentiation medium (GUXMX-90041, Cyagen Biosciences, Sunnyvale Calif.) • TheraPEAK MSCGM chemically defined Stem cell medium (190632 Lonza) • 1 mM Dexamethasone acetate and mifepristone in absolute ethanol (Sigma) • Saline or 0.9% Sodium chloride for injection ZR Flush (Excelsior Medical, Neptune N.J.) • Sterile filtered 0.6 mM sodium caprylate in saline (sigma) • Sterile filtered 3 mM NAT in saline (sigma); To prepare, heat at 60° C. for 30 minutes then sonicate for 5 minutes. • Sterile filtered 10 mM DADKP in saline • 0.2 μM syringe filters • Hepes buffered saline, Trypsin/EDTA, Trypsin neutralizing solution (Lonza reagent pack) • 182 cm2 tissue culture flasks • pipettes and sterile tips • Tissue culture hood, humidified CO2 incubator, water or bead bath • 24 well tissue culture plates • Qiagen RNeasy plus spin columns (Qiagen 74134) • Qiagen RT2 qPCR primer pairs for Collagen 2A1, MMP13, TIMP1, Aggrecan, GAPDH, and Actin B • Roche Sybr green I master mix and Invitrogen Superscript VILO master mix. • Roche 480 lightcycler
(§2) The following stock drug treatment solutions were prepared in saline for injection and warmed to 37° C. in bath: • 4 μM dexamethasone • 4 μM mifepristone • 3 mM NAT • 0.6 mM caprylate • 80 μM DADKP • Mix of 3 mM NAT, 0.6 mM caprylate, 80 μM DADKP (“Ampion” mix)
(§3) Cyagen Chondrogenic Differentiation medium was prepared by manufacturer protocols but excluding dexamethasone and TGF beta 3 supplements, and warmed to 37° C. in bath.
(§4) The treatment protocol included expanding 5 HUXMA stem cells in 182 cm^2 flasks containing 40 mls TheraPEAK™ MSCGM to 80-90% confluence. Cells were trypsinized from the flasks and a 1.0×10^7 cell suspension of HUXMA stem cells was warmed in Cyagen Chondrogenic Differentiation medium. 20 μl of warmed cell suspension was spotted in the middle of each well of a 24-well tissue culture plate (200,000 cells per spot), and incubated at 37° C. and 5% CO2 for one hour.
(§5) The plates were removed from the incubator and an additional 720 μl chondrogenic medium was added to each well. 250 μl saline, or drug solutions were added to the appropriate wells in triplicate (bringing the final drug dilution to one-quarter of the stock drug treatment solution concentrations). 10 μl of TGF beta 3 solution (supplied by Cyagen) was added to each well, and the plates were returned to the incubator.
(§6) RNA isolation and analysis was conducted for all plates as follows at days 7, 14, and 22 post treatment (with the described medium exchanges). […] Qiagen RNeasy plus lysis buffer (with 2mercaptoethanol) was added to each well and gently shaken for 10 minutes. The lysed cell suspensions from each well were transferred to Qiashredder columns and spun at 14,000 rpm for 2 minutes. RNA isolation proceeded by RNeasy™ plus manufacturer's protocol. RNA was eluted from the Qiagen columns using 25 μl RNase free water.
(§7) cDNA synthesis and real time PCR was conducted as follows. First strand synthesis of cDNA from all samples was performed in 20 μl total volume using 10 μl isolated RNA. All cDNA reactions were then diluted with 30 μl nuclease free water. Real time PCR was then performed using 5 μl diluted cDNA, Roche Syber green master mix, and Qiagen RT^2 gPCR™ primer pairs in 20 μl total reaction volume. Relative gene expression was determined by delta deta Ct method.

MMP13 = experiment: Stem cell chondrogenesis, real time PCR gene expression: MMP13; format: cell-based, human; conditions: for Mean regulation: vs saline; for Mean ΔCp / ΔCp: MMP13 vs GAPDH
Protocol: as §1, §2, §3, §4, §5, §6, §7

SOX9 = experiment: Stem cell chondrogenesis, real time PCR gene expression: SOX9; format: cell-based, human; conditions: Day 14
Protocol: The treatment protocol included expanding 5 HUXMA stem cells in 182 cm^2 flasks containing 40 […] to 80-90% confluence. Cells were trypsinized from the flasks and a 1.0×10^7 cell suspension of HUXMA stem cells was warmed in Cyagen Chondrogenic Differentiation medium. 20 μl of warmed cell suspension was spotted in the middle of each well of a 24-well tissue culture plate (200,000 cells per spot), and incubated at 37° C. and 5% CO2 for one hour. […] Medium exchanges were performed every 3-4 days by aspirating the medium from the wells and replacing with fresh chondrogenic medium, diluted stocks, and TGF beta 3, as described above. […] Medium from the wells was removed and saved for further protein analysis. Qiagen RNeasy plus lysis buffer (with 2mercaptoethanol) was added to each well and gently shaken for 10 minutes. The lysed cell suspensions from each well were transferred to Qiashredder columns and spun at 14,000 rpm for 2 minutes. RNA isolation proceeded by RNeasyTM plus manufacturer's protocol. RNA was eluted from the Qiagen columns using 25 μl RNase free water. cDNA synthesis and real time PCR was conducted as follows. First strand synthesis of cDNA from all samples was performed in 20 μl total volume using 10 μl isolated RNA. All cDNA reactions were then diluted with 30 μl nuclease free water. Real time PCR was then performed using 5 μl diluted cDNA, Roche Syber green master mix, and Qiagen RT^2 gPCRTM primer pairs in 20 μl total reaction volume.

Aggrecan = experiment: Stem cell chondrogenesis, real time PCR gene expression: Aggrecan; format: cell-based, human; conditions: for Mean ΔCp / ΔCp: Aggrecan vs Actin; for Mean ΔCp / ΔCp / Cp Agg / Mean regulation: Day 22; for Cp Agg / Mean regulation: Aggrecan; for Mean regulation: vs saline
Protocol: as §1, §2, §3, §4, §5, §6, §7

TIMP1 = experiment: Stem cell chondrogenesis, real time PCR gene expression: TIMP1; format: cell-based, human; conditions: Day 22; for Mean ΔCp / ΔCp: TIMP1 vs Actin
Protocol: as §1, §2, §3, §4, §5, §6, §7

[1] = test system: Bone marrow derived human mesenchymal stem cells; experiment: Visual observation of cell aggregates in chondrogenic culture; format: cell-based; conditions: day seven
[2] = Day 7, vs Actin, single replicate well
[3] = vs Actin, single replicate well

SMILES: C[C@@H]1NC(=O)[C@H](CC(=O)O)NC1=O [DADKP, aspartyl-alanyl diketopiperazine]
- Cp Coll (Collagen 2A1; Table 12): 27.41 and 25.44 and 22.94
- Cp Coll (Collagen 2A1; Table 16): 27.41 and 25.44 and 22.94
- Mean regulation (Collagen 2A1; Table 12): 136.83
- Mean regulation (Collagen 2A1; Table 16): 136.83
- Mean ΔCp (Collagen 2A1; Table 12): 7.223
- Mean ΔCp (Collagen 2A1; Table 16): 7.223
- regulation, Collagen 2A1 (Collagen 2A1; Day 7): 1.65 and −2.28 and −1.25
- Mean regulation, Collagen 2A1 (Collagen 2A1; Day 7): −0.62
- ΔCp, Collagen 2A1 (Collagen 2A1; Day 7): 6.01 and 7.92 and 7.05
- 2^-ΔΔCp vs saline, Collagen 2A1 (Collagen 2A1; Day 7): 1.651 and 0.4393 and 0.8029
- ΔΔCp vs saline, Collagen 2A1 (Collagen 2A1; Day 7): −0.72 and 1.187 and 0.317
- Mean ΔCp, Collagen 2A1 (Collagen 2A1; Day 7): 6.993
- regulation, Collagen 2A1 (Collagen 2A1; Day 14): 1.48 and 2.56 and −1.02
- Mean regulation, Collagen 2A1 (Collagen 2A1; Day 14): 1.01
- ΔCp, Collagen 2A1 (Collagen 2A1; Day 14): 10.49 and 9.7 and 11.09
- 2^-ΔΔCp vs saline, Collagen 2A1 (Collagen 2A1; Day 14): 1.4811 and 2.5609 and 0.9772
- ΔΔCp vs saline, Collagen 2A1 (Collagen 2A1; Day 14): −0.57 and −1.36 and 0.033
- Mean ΔCp, Collagen 2A1 (Collagen 2A1; Day 14): 10.43
- collagen transcription (in words) (Collagen 2A1; day 22): greatly enhanced
- increase in transcription of Collagen 2a1 (Collagen 2A1; day 22): 2000 fold
- collagen transcription (in words) (Collagen 2A1; day fourteen, compared with the control in a pellet): still elevated
- regulation, MMP13 (MMP13; Day 7, fold regulation vs saline, single replicate well): −1.29 and 1.03 and −1.76
- Mean regulation, MMP13 (MMP13; Day 7, fold regulation vs saline, triplicate wells): −0.67
- ΔCp, MMP13 (MMP13; Day 7, human bone marrow MSC, chondrogenic medium + TGF beta 3, vs Actin, single replicate well): 5 and 4.6 and 5.45
- 2^-ΔΔCp vs saline, MMP13 (MMP13; [2]): 0.7774 and 1.0257 and 0.5691
- ΔΔCp vs saline, MMP13 (MMP13; [2]): 0.363 and −0.04 and 0.813
- Mean ΔCp, MMP13 (MMP13; Day 7, vs Actin, triplicate wells): 5.017
- Cp, MMP13 (MMP13; MMP13, Day 22, Table 12): 20.34 and 21.41 and 21.25
- 2^-ΔΔCp vs saline (MMP13; MMP13, Day 22, Table 16): 1.1277 and 1.0163 and 0.9352
- Cp, MMP13 (MMP13; MMP13, Day 22, Table 16): 20.34 and 21.41 and 21.25
- Mean regulation (MMP13; MMP13, Day 22, Table 12): 0.36
- Mean regulation (MMP13; MMP13, Day 22, Table 16): 0.36
- Mean ΔCp (MMP13; Day 22, Table 12): 2.96
- ΔCp (MMP13; Day 22, Table 12): 2.82 and 2.97 and 3.09
- Mean ΔCp (MMP13; Day 22, Table 16): 2.96
- ΔCp (MMP13; Day 22, Table 16): 2.82 and 2.97 and 3.09
- regulation, SOX9 (SOX9; fold regulation vs saline, single replicate well): −1.59 and 1.07 and 1.10
- Mean regulation, SOX9 (SOX9; fold regulation vs saline, triplicate wells): 0.19
- ΔCp, SOX9 (SOX9; human bone marrow MSC, chondrogenic medium + TGF beta 3, vs Actin, single replicate well): 7.85 and 7.08 and 7.04
- 2^-ΔΔCp vs saline, SOX9 (SOX9; [3]): 0.6285 and 1.0718 and 1.1019
- ΔΔCp vs saline, SOX9 (SOX9; [3]): 0.67 and −0.1 and −0.14
- Mean ΔCp, SOX9 (SOX9; vs Actin, triplicate wells): 7.323
- Mean ΔCp (Aggrecan; Table 12): 7.28
- ΔCp (Aggrecan; Table 12): 9.06 and 6.83 and 5.95
- Mean ΔCp (Aggrecan; Table 16): 7.28
- ΔCp (Aggrecan; Table 16): 9.06 and 6.83 and 5.95
- Cp Agg (Aggrecan; Table 12): 24.7 and 23.56 and 22.36
- Cp Agg (Aggrecan; Table 16): 24.7 and 23.56 and 22.36
- Mean regulation (Aggrecan; Table 12): 10.65
- Mean regulation (Aggrecan; Table 16): 10.65
- increase in transcription of aggrecan (Aggrecan; day 22): 20 fold
- Cp TIMP1 (TIMP1; TIMP1, Table 12): 18.64 and 19.9 and 19.36
- 2-^ΔΔCp vs saline (TIMP1; TIMP1, Table 16): 1.7013 and 1.5122 and 1.7613
- Cp TIMP1 (TIMP1; TIMP1, Table 16): 18.64 and 19.9 and 19.36
- Mean regulation (TIMP1; TIMP1, vs saline, Table 12): 1.66
- regulation (TIMP1; TIMP1, vs saline, Table 12): 1.70 and 1.51 and 1.76
- regulation (TIMP1; TIMP1, vs saline, Table 16): 1.70 and 1.51 and 1.76
- Mean ΔCp (TIMP1; Table 12): 3.04
- ΔCp (TIMP1; Table 12): 3 and 3.17 and 2.95
- Mean ΔCp (TIMP1; Table 16): 3.04
- ΔCp (TIMP1; Table 16): 3 and 3.17 and 2.95
- form of the culture (discs or pellets) [1]: pulled into loose pellets
